The test has as its target Aldehyde dehydrogenase, mitochondrial (Mesocricetus auratus). Put plainly: Inhibition of hamster liver aldehyde dehydrogenase ALDH-2.

One may read the IC50 as the concentration at which inhibition is half-maximal. A lower IC50 goes with greater potency in that assay.

With `O=C(O)COc1ccc2c(=O)c(-c3ccc(O)cc3)coc2c1` [2-(3-(4-hydroxyphenyl)-4-oxo-4H-chromen-7-yloxy)acetic acid], the IC50 amounted to 1200 nM.
In the case of `CCCCC(Oc1ccc2c(=O)c(-c3ccc(O)cc3)coc2c1)C(=O)OCC` (configuration not stated) [2-[3-(4-Hydroxy-phenyl)-4-oxo-4H-chromen-7-yloxy]-hexanoic acid ethyl ester] it was 4500 nM.
For `CCCCCCC(Oc1ccc2c(=O)c(-c3ccc(O)cc3)coc2c1)C(=O)OCC` (configuration not stated) [2-[3-(4-Hydroxy-phenyl)-4-oxo-4H-chromen-7-yloxy]-octanoic acid ethyl ester], the IC50 was found to be 7200 nM.
`CCCCCCC(Oc1ccc2c(=O)c(-c3ccc(O)cc3)coc2c1)C(=O)O` (configuration not stated) [2-[3-(4-Hydroxy-phenyl)-4-oxo-4H-chromen-7-yloxy]-octanoic acid]: the IC50 amounted to 2000 nM.
In the case of `CC(Oc1ccc2c(=O)c(-c3ccc(O)cc3)coc2c1)C(=O)O` (configuration not stated) [2-[3-(4-Hydroxy-phenyl)-4-oxo-4H-chromen-7-yloxy]-propionic acid] it was 2500 nM; in that of `CC(C)Oc1ccc2c(=O)c(-c3ccc(O)cc3)coc2c1` [3-(4-Hydroxy-phenyl)-7-isopropoxy-chromen-4-one], 80 nM.
In the case of `CCOC(=O)CCCCOc1ccc2c(=O)c(-c3ccc(O)cc3)coc2c1` [5-[3-(4-Hydroxy-phenyl)-4-oxo-4H-chromen-7-yloxy]-pentanoic acid ethyl ester], the IC50 worked out at 240 nM.
In the case of `O=C(O)CCCCOc1ccc2c(=O)c(-c3ccc(O)cc3)coc2c1` [5-[3-(4-Hydroxy-phenyl)-4-oxo-4H-chromen-7-yloxy]-pentanoic acid], it took 100 nM to reach half-maximal inhibition (IC50).
In the case of `CCOC(=O)CCCCCOc1ccc2c(=O)c(-c3ccc(O)cc3)coc2c1` [6-[3-(4-Hydroxy-phenyl)-4-oxo-4H-chromen-7-yloxy]-hexanoic acid ethyl ester], it took 280 nM to reach half-maximal inhibition (IC50).
Compound `O=c1c(-c2ccc(O)cc2)coc2cc(OCCOCCOCCO)ccc12` [7-(2-(2-(2-hydroxyethoxy)ethoxy)ethoxy)-3-(4-hydroxyphenyl)-4H-chromen-4-one] showed an IC50 of 40 nM.
`NCCCCOc1ccc2c(=O)c(-c3ccc(O)cc3)coc2c1` [7-(4-Amino-butoxy)-3-(4-hydroxy-phenyl)-chromen-4-one]: the 50% inhibitory concentration (IC50) amounted to 250 nM.
Compound `NCCCCCCOc1ccc2c(=O)c(-c3ccc(O)cc3)coc2c1` [7-(6-Amino-hexyloxy)-3-(4-hydroxy-phenyl)-chromen-4-one] had an IC50 of 100 nM.
As for `O=c1c(-c2ccc(O)cc2)coc2cc(OCCCCCCO)ccc12` [7-(6-Hydroxy-hexyloxy)-3-(4-hydroxy-phenyl)-chromen-4-one], the IC50 was found to be 120 nM.
`O=c1c(-c2ccc(O)cc2)coc2cc(OCCCCCCCCCO)ccc12` [7-(9-Hydroxy-nonyloxy)-3-(4-hydroxy-phenyl)-chromen-4-one] registered an IC50 of 700 nM.
In the case of `O=c1c(-c2ccc(O)cc2)coc2cc(OCCCCCCCCCCCCO)ccc12` [7-(12-Hydroxy-dodecyloxy)-3-(4-hydroxy-phenyl)-chromen-4-one] it was 1700 nM.
Take `CCCCCCCCCCCCOc1ccc2c(=O)c(-c3ccc(O)cc3)coc2c1` [7-(dodecyloxy)-3-(4-hydroxyphenyl)-4H-chromen-4-one]: the 50% inhibitory concentration (IC50) was more than 9000 nM.
In the case of `C=CCOc1ccc2c(=O)c(-c3ccc(O)cc3)coc2c1` [7-Allyloxy-3-(4-hydroxy-phenyl)-chromen-4-one] it was 180 nM; in that of `CC1=C(c2ccccc2)C(=O)OC2CC(Cl)CCC12` (configuration not stated) [7-Chloro-4-methyl-3-phenyl-4a,5,6,7,8,8a-hexahydro-chromen-2-one], 150 nM; in that of `CCOc1ccc2c(=O)c(-c3ccc(O)cc3)coc2c1` [7-Ethoxy-3-(4-hydroxy-phenyl)-chromen-4-one], 80 nM.
`C=CCCCCOc1ccc2c(=O)c(-c3ccc(O)cc3)coc2c1` [7-Hex-5-enyloxy-3-(4-hydroxy-phenyl)-chromen-4-one]: the half-inhibitory concentration (IC50) was determined as 150 nM.
`CCCCCCOc1ccc2c(=O)c(-c3ccc(O)cc3)coc2c1` [7-Hexyloxy-3-(4-hydroxyphenyl)chromen-4-one] displayed an IC50 of 1500 nM.
The compound `O=C(O)CCCCCCOc1ccc2c(=O)c(-c3ccc(O)cc3)coc2c1` [7-[3-(4-Hydroxy-phenyl)-4-oxo-4H-chromen-7-yloxy]-heptanoic acid] returned an IC50 of 50 nM.
Compound `O=C(O)CCCCCCCOc1ccc2c(=O)c(-c3ccc(O)cc3)coc2c1` [8-(3-(4-hydroxyphenyl)-4-oxo-4H-chromen-7-yloxy)octanoic acid] yielded an IC50 of 40 nM.
In the case of `O=C(O)CCCCCCCCCOc1ccc2c(=O)c(-c3ccc(O)cc3)coc2c1` [10-(3-(4-hydroxyphenyl)-4-oxo-4H-chromen-7-yloxy)decanoic acid] it was 50 nM.
With `O=C(O)CCCCCCCCCCCOc1ccc2c(=O)c(-c3ccc(O)cc3)coc2c1` [12-(3-(4-hydroxyphenyl)-4-oxo-4H-chromen-7-yloxy)dodecanoic acid], half-maximal inhibition (IC50) was put at 130 nM.
For `O=C(O)CCCCCCCCCCCCCCCOc1ccc2c(=O)c(-c3ccc(O)cc3)coc2c1` [16-[3-(4-Hydroxy-phenyl)-4-oxo-4H-chromen-7-yloxy]-hexadecanoic acid], the IC50 was more than 9000 nM.
For `CCOC(=O)COc1ccc2c(=O)c(-c3ccc(O)cc3)coc2c1` [[3-(4-Hydroxy-phenyl)-4-oxo-4H-chromen-7-yloxy]-acetic acid ethyl ester], the IC50 worked out at 130 nM.

The values are drawn from BindingDB's records for doi:10.1021/jm0101390 (Harvard Medical School, 2001).
